Here are results for one compound from PMC12756723, “Derivatives of the Cashew Nut Shell Liquid as Ligands of Pseudomonas aeruginosa Phenazine Protein D (PaPhzD)” (ACS Omega, 2025).

Entries after “also recorded” stand apart in the source; their conditions may differ. A value given as a limit tells only on which side of the number the result lay.

Broadly, the IC50 is the midpoint of a concentration-inhibition curve.

One assay deals with T1, PaPhzD (Pseudomonas aeruginosa, UniProt P0DPB9).
T1 construct: inferred from Ni-NTA purification with imidazole elution; made in house; host or cells: E. coli BL21(DE3)
T1 sequence (P0DPB9 whole entry): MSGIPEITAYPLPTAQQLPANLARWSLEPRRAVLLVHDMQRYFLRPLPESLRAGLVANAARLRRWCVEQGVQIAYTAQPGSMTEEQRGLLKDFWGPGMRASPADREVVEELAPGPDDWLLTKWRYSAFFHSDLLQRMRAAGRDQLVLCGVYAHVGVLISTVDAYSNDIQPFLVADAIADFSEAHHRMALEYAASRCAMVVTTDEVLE
Put plainly: Thermal shift assay (TSA) with SYPRO Orange. Type of assay: binding. On the procedure: Thermal shift assays were performed on an Applied Biosystems 7500 RT-PCR (Applied Biosystems, Foster City, CA USA). All experiments were carried out in triplicate with 1 °C per minute increments in temperatures that range from 25 to 85 °C in 96-well PCR plates (PCR plates 96-well, BioRad), sealed with transparent capping strips (Flatcap strips, BioRad). The fluorescence of SYPRO Orange (Invitrogen S6650) was monitored (excitation wavelength, 492 nm; emission wavelength, 610 nm). Before the compounds’ screening, protein and DMSO concentrations were evaluated to improve PaPhzD stability throughout the assay.
The protein concentration required for an optimal signal-to-noise ratio (>5-fold) was evaluated by analysis of the raw fluorescence curves at different PaPhzD concentrations (1–5 μM). Then, the effect of DMSO (0–10%) over PaPhzD T m was evaluated at the optimal protein concentration. Fluorescence raw data were recorded using Applied Biosystems 7500 Software v2.0 and then processed with NAMI software to calculate T m values by the first-derivative method.
LDT compounds were screened at a final concentration of 50 μM. Briefly, 1 μL of each compound (1 mM DMSO stock solution) was added to a mixed solution containing 5 μM PaPhzD diluted in 50 mM Tris–HCl buffer (pH 8.0) containing 100 mM NaCl, 1 mM DTT, and SYPRO Orange dye (Invitrogen S6650) (1:100 dilution). Each compound was assayed in triplicate, and ΔT m values were calculated by comparison to reference wells that had 1 μL DMSO instead of the LDT compounds. Differences between T m values (ΔT m) were considered statistically significant when p < 0.01, according to the one-way ANOVA followed by Dunnett’s post-test for multiple comparisons, available in GraphPad Prism 9.0 software (GraphPad Software, San Diego, CA, USA, www.graphpad.com).
Compounds with ΔT m values statistically different from the reference were also assayed at different concentrations (ranging from 6.25 to 100 μM) to evaluate the concentration–response behavior. The ΔT m versus concentration plots were generated using the nonlinear regression method available in GraphPad Prism version 9.0.

The next assay concerns phzA1-G1. Put plainly: lacZ transcriptional fusion, phzA1-G1 operon. Format: cell-based, Pseudomonas aeruginosa. The conditions noted are these: late exponential phase. On the procedure:
(§1) P. aeruginosa harbors two identically structured operons in its genome, which encode most of the enzymes responsible for PYO synthesis (phzA1-G1 and phzA2-G2) but have slightly different regulatory regions 1. lacZ transcriptional fusions for each operon were assayed at mid-log and late exponential phases (OD=1 and 3, respectively). At mid-log cultures, the expression of both QS-regulated operons is extremely low, and it increases more than 1000-fold at late exponential phase for phzA1-G1 and 4-fold for phzA2-G2, as expected. Addition of compounds 2 and 4 had no effect for both operons in the late […]
(§2) synthesis is not related to inhibition at the transcriptional level.
(§3) Figure 7S: Effect of LDT10 (2) and LDT13 (3) on the phzA1-G1 (A) and phzA2-G2 […]
(§4) (1 picture or pasted object on this page, not shown here)

The test system of assay [1] is P. aeruginosa PA14. Put plainly: Biofilm assay (crystal violet). Format: cell-based, Pseudomonas aeruginosa. The conditions noted are these: 100 μM, vs DMSO control. The method, then: Exponential phase cultures of P. aeruginosa PA14 were diluted to 5 × 10^5 colony forming units (CFU) in 48-well plates with LB containing each compound (1, 3, and 5) at 100 μM final concentrations or 0.1% DMSO (v/v) as a negative control. The plate was incubated steadily at 30 °C for 20 h inside a plastic bag to avoid evaporation. After the incubation, the OD600 of each well was measured in a plate reader (SpectraMax Paradigm). The planktonic bacteria were removed by turning the plate over the waste, followed by three steps of washing with distilled water. After drying, a solution of 1% crystal violet was added to each well and incubated at room temperature for 30 min to stain the attached cells forming a ring at the air–liquid interface. The crystal violet solution was removed, and the plate was washed using the same procedure. The dye was solubilized with 30% acetic acid for 30 min at room temperature. The Abs550 was measured, and the value was divided by the OD600 for each well. A total of 24 replicates were made for each treatment (6 wells per plate, four plates)

Assay [2] has as its system P. aeruginosa cells (ATCC 27853). Briefly: Screening of PYO production inhibitors (supernatant absorbance 691 nm). To be noted: 100 μM. Type of assay: cell-based, Pseudomonas aeruginosa. On the procedure:
P. aeruginosa cells (ATCC 27853) were inoculated by depletion on King’s A agar, and the plates were incubated at 30 °C for 24 h. Isolated colonies were collected and resuspended in sterile saline solution (0.85%) until turbidity equivalent to optical density (OD) at 600 nm, equal to 0.3 (1.5 × 10^8 CFU/mL). This bacterial suspension was diluted 10-fold and used to inoculate King’s A broth.
The potential inhibitors, previously solubilized in DMSO, were added to the culture medium after the inoculation (final concentration = 100 μM). The control group was cultured in the presence of an equivalent volume of DMSO but without the presence of potential inhibitors. The cell suspension was maintained at 30 °C under constant agitation (180 rpm) for 24 h in a 24-well plate. After this period, the OD600 was measured to evaluate bacterial growth, and in parallel, after being subjected to centrifugation, the supernatant was read in a 96-well plate at a wavelength of 691 nm. The sterile medium used for culturing the microorganism was used as a positive control, and culture medium containing 1% DMSO was used as a negative control.

Assay [3] deals with P. aeruginosa PA14. Briefly: Swarming assay. Type of assay: cell-based, Pseudomonas aeruginosa. To be noted: 100 μM. The method, then:
Swarming assays were performed as described, using 6-well plates. Briefly, 3 μL of culture (OD600 = 3.0) was inoculated in the center of modified M9 (20 mM NH4Cl; 12 mM Na2HPO4; 22 mM KH2PO4; 8.6 mM NaCl; 1 mM MgSO4; 1 mM CaCl2 2 H2O; 11 mM glucose; 0.5% casamino acids (Difco)) with 0.5% of Bacto-agar (Difco), containing the respective compounds (100 μM final concentration, diluted in DMSO). Plates were incubated inside plastic bags to avoid evaporation at 30 °C for 16 h. After this period, pictures were taken, and the area covered by the colonies was measured using ImageJ. All assays were performed with four replicates, and 0.1% DMSO (v/v) was employed as a negative control.

The next assay relates to phzA2-G2. Put plainly: lacZ transcriptional fusion, phzA2-G2 operon. Type of assay: cell-based, Pseudomonas aeruginosa. The conditions noted are these: late exponential phase. On the procedure: as §1, §2, §3, §4
A further assay has as its system KinA/SPOOF. More on the design: method as in Kanojia et al. The conditions noted are these: KinA/SPOOF from B. subtilis; ref Kanojia et al.; cited from earlier work.
Another assay has as its system P. aeruginosa. Briefly: Colony morphology in medium containing compounds. Type of assay: cell-based, Pseudomonas aeruginosa. To be noted: data not shown.

As for `CCCCCCCCCCCCCCCc1cccc(O)c1` [Compound 2], the “ΔTm of PaPhzD” value on PaPhzD (50 μM compound, 5 μM PaPhzD, vs DMSO reference) is −3.8 °C. Moreover, the “Concentration–response behavior of ΔTm” value on PaPhzD (6.25 to 100 μM) is given as “clear concentration–response behavior”. In addition, the “Effect on phzA1-G1 transcription” value in the assay on phzA1-G1 is listed as “no effect”. In addition, the “Effect on biofilm formation” value in the assay with P. aeruginosa PA14 [1] is listed as “without affecting bacterial growth or biofilm formation; also recorded: not significantly different the control”. Moreover, in assay [2] (24 h, 30 °C), the “Pyocyanin production, Cohen's d vs control” value is recorded as −2.56. The “Effect on pyocyanin production” value in assay [2] (vs DMSO control) is “decreased pyocyanin production”. Besides, in the assay on P. aeruginosa PA14 [3], the “Swarming motility, % compared to control conditions” value is reported as 65% and the “Swarming motility, Cohen's d vs control” value was −0.91. For the same compound, the “Effect on phzA2-G2 transcription” value with phzA2-G2 was “no effect”. The half-maximal inhibitory concentration (IC50) in the assay on KinA/SPOOF is over 500 µM. Besides, the “Effect on colony morphology” value in the assay on P. aeruginosa is reported as “No effects on colony morphology”.
